What was measured:
EGFR^WT kinase = biological target: T1, EGFR^WT kinase (Homo sapiens, UniProt P00533); assay: EGFR^WT kinase assay (ULight peptide / Eu-PT66 antibody detection); format: biochemical
T1 construct: purchased Carna Biosciences 08-115
Text: (§1) Reagents and consumables: ULight™-labeled Ploy GT Peptide (Perkin Elmer, Cat. No. TRF-0100-M); ULight™-labeled JAK-1 (Try1023) Peptide (Perkin Elmer, Cat. No. TRF-0121-M); Eu-W1024-labeled Anti-Phosphotyrosine Antibody (PT66) (Perkin Elmer, Cat. No. AD0068); 10×Detection Buffer (Perkin Elmer, Cat. No. CR97-100); HER2 Kinase (Carna Biosciences, Cat. No. 08-016); EGFR kinase (Carna Biosciences, Cat. No. 08-115); HEPES (GIBCO, Cat. No. 15630-080); EGTA (Sigma, Cat. No. 03777-10G); EDTA (Sigma, Cat. No. EDS-100G); MgCl2 (Sigma, Cat. No. 63069-100ML); DTT (Sigma, Cat. No. 43816-10ML); Tween-20 (Sigma, Cat. No. P7949-100ML); DMSO (Life Science, Cat. No. 0231-500ML); 384-well plates (Perkin Elmer, Cat. No. 607290); multifunctional plate reader (Perkin Elmer, Cat. No. Envision)
(§2) Preparation of compound solution: The assay compound was dissolved in DMSO to form a 10 mM stock solution. Prior to use, the compound was diluted to 0.25 mM in DMSO (100 times the final concentration of the diluent) and then subjected to a 3-fold concentration gradient dilution to obtain a total of 11 concentrations. The solution was diluted with buffer to a diluent with 4× the final concentration when the drug was added.
(§3) EGFR^WT kinase assay: buffer was prepared, and 3.48 nM 4× EGFR kinase solution, 600 μM 4× ATP solution, and 400 nM 4×ULight™-labeled JAK-1 (Try1023) Peptide substrate solution was prepared using the buffer. After the preparation was completed, the enzyme was mixed with different concentrations of compounds pre-prepared by dilution, and the mixture was left to stand at room temperature for 5 min. Each concentration was performed in duplicate. The corresponding substrate and ATP were added and the mixture was reacted at room temperature for 120 minutes (with negative and positive controls). After completion of the reaction, PT66 detection antibody was added. The mixture was incubated at room temperature for 60 minutes, and then detected by Envision.
(§4) Data Calculation: the reading of well and inhibition rate were calculated using Excel, wherein reading of well=10000*(well EU665 value)/(well EU615 value), and inhibition rate=[(reading of positive control well−reading of assay well)/(reading of positive control well−reading of negative control well)]*100%. Compound concentrations and corresponding inhibition rates were input into GraphPad Prism for processing to calculate IC50 values.

HER2 kinase = biological target: T2, HER2 kinase (Homo sapiens, UniProt P04626); assay: HER2 kinase assay (ULight peptide / Eu-PT66 antibody detection); format: biochemical
T2 construct: purchased Carna Biosciences 08-016
T2 sequence (P04626 23-1255): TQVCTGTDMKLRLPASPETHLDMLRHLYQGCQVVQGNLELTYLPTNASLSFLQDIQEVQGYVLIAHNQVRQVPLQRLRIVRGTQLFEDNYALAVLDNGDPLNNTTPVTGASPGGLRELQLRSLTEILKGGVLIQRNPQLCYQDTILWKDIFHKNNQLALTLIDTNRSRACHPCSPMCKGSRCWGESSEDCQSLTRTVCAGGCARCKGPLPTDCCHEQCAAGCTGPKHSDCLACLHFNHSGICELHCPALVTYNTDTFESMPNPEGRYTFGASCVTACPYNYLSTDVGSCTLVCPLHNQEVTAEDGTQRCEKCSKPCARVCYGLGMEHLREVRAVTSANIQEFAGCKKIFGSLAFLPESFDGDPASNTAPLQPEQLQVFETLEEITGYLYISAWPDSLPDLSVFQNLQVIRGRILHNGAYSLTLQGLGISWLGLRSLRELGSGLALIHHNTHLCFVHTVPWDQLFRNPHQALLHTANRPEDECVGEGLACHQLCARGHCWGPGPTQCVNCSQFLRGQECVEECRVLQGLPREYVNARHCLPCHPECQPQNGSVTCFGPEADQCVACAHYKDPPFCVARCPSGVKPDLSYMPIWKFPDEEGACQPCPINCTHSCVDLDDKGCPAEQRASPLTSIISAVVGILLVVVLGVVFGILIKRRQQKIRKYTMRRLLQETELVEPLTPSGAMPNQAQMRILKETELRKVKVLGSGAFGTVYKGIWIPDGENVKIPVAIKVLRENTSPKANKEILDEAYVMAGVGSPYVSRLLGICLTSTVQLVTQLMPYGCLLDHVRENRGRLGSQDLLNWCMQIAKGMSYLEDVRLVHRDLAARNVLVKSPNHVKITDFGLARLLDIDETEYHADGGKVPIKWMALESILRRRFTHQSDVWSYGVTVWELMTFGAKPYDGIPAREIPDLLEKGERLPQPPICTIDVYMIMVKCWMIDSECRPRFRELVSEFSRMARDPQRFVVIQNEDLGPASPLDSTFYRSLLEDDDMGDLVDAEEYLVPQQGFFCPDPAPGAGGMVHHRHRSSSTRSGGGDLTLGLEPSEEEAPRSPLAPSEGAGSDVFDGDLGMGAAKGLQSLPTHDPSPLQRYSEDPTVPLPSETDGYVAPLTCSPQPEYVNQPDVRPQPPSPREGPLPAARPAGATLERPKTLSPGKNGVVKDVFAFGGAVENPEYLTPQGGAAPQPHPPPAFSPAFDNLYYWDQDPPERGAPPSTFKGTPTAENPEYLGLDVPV
Text: as §1, §2
as §3, with “HER2 kinase” for “EGFR^WT kinase”, “and 40” for “and 3.48”, “4× HER2” for “4× EGFR”, “solution, 40” for “solution, 600”, “4×ULight™-labeled Ploy GT” for “4×ULight™-labeled JAK-1 (Try1023)”, “solution were” for “solution was”
as §4

HCC-827 cells = assay: Inhibition of cell proliferation, CTG method, HCC-827; format: cell-based; settings: Homo sapiens, HCC827, 72 hours
Text: (§5) The present application examined the in vitro anti-proliferative activity of the compounds of the present disclosure against in vitro cultured HCC-827, Ba/F3-EGFR-VIII and Ba/F3 EGFR D770_N771insSVD cell lines by CTG method.
(§6) Reagents and consumables: RPMI1640 (ThermoFisher, Cat. No. C11875500BT); DMEM (ThermoFisher, C11995500BT); fetal bovine serum (Hyclone, Cat. No. SV30087.03); 0.25% trypsin-EDTA (ThermoFisher, Cat. No. 25200072); penicillin-streptomycin (Hyclone, Cat. No. SV30010); DMSO (Life Science, Cat. No. 0231-500ML); CTG assay kit (Promega, Cat. No. G9243); 96-well plate (Corning, Cat. No. 3599); multifunctional plate reader (Perkin Elmer, Cat. No. Envision)
(§7) Cell lines: HCC-827 (from ATCC), Ba/F3-EGFR-VIII and Ba/F3 EGFR D770_N771insSVD (all from KYinno Biotechnology (Beijing) Co., Ltd.); all of the above cells were cultured with RPMI1640 medium containing 10% fetal bovine serum, 100 U/mL penicillin, and 100 μg/mL streptomycin in the culture process, and HCC-827 was cultured with DMEM medium containing 10% fetal bovine serum, 100 U/mL penicillin, and 100 μg/mL streptomycin.
(§8) • 1. The assay compound was dissolved with DMSO to form a stock solution and a gradient dilution was performed, followed by dilution with the corresponding medium to obtain a solution with 5-fold working concentration. • 2. Cells in logarithmic growth phase were adjusted to specific cell densities by dilution with culture medium, and 80 μL of cell suspension was added to a 96-well plate, such that plating densities of cells of HCC-827, Ba/F3-EGFR-VIII and Ba/F3 EGFR D770_N771insSVD were all 3000 cells/well. The cells of Ba/F3-EGFR-VIII and Ba/F3 EGFR D770_N771insSVD were used directly in the next step (treatment with compound), whereas the HCC-827 needed to be cultured overnight in a 37° C., 5% carbon dioxide gas incubator to adhere to the wall, and then treated with compounds. • 3. 20 μL of compound solution was added to each well of the 96-well plate that had been inoculated with cells. The highest concentration of the assayed compound was 10 μM, 4-fold serial dilution, a total of 9 concentrations, and duplicate wells. A control group without compound was also set up. • 4. The cells were cultured for another 72 hours, and then cell viability was detected by CTG assay kit. Signal values were read with a multifunctional plate reader (Perkin Elmer). GraphPad Prism software was used to create a dose-response curve and IC50 was calculated.

[1] = biological target: Ba/F3 EGFR D770_N771insSVD cells (Homo sapiens, UniProt P00533, DUP768-770, cells depend on it); assay: Inhibition of cell proliferation, CTG method, Ba/F3 EGFR D770_N771insSVD; format: cell-based; settings: 72 hours, read-out: Ba/F3 EGFR D770_N771insSVD IC50
Sequence of Ba/F3 EGFR D770_N771insSVD cells (P00533 with tags, fused parts or gaps DUP768-770): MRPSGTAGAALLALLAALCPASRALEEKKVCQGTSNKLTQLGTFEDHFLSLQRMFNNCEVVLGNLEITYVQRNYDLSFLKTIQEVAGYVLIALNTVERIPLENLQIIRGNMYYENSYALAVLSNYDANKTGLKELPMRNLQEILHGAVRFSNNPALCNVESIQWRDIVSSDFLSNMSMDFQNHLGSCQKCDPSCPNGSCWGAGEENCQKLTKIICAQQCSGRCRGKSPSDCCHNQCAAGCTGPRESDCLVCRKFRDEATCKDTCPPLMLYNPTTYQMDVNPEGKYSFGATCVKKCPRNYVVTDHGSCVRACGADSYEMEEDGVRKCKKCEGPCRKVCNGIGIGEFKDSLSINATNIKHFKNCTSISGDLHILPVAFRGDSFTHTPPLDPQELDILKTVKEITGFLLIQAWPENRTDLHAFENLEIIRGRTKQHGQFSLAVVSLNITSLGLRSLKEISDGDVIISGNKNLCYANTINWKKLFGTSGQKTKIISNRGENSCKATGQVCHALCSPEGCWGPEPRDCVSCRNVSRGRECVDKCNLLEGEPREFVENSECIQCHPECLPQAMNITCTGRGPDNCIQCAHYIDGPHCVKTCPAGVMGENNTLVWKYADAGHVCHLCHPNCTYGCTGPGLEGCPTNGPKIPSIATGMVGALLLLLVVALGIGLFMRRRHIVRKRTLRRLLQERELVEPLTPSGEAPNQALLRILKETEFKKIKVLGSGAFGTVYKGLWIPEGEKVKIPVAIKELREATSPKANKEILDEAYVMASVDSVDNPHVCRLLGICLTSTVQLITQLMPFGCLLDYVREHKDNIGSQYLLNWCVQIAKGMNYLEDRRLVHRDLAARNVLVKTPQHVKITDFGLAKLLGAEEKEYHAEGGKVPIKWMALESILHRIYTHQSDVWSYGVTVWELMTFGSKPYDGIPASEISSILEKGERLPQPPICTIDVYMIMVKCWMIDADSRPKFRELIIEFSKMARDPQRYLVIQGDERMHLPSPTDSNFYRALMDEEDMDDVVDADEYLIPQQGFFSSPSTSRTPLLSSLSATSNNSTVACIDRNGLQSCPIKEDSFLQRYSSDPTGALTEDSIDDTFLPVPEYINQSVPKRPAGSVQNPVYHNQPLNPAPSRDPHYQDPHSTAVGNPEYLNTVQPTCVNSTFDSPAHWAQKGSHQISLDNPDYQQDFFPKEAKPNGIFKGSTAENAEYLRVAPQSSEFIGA
Text: as §5, §6, §7, §8

Ba/F3-EGFR-VIII cells = Ba/F3-EGFR-VIII cells (Homo sapiens, UniProt P00533, DELINS30-297G, cells depend on it); assay: Inhibition of cell proliferation, CTG method, Ba/F3-EGFR-VIII; format: cell-based; settings: 72 hours, read-out: Ba/F3 EGFRvIII IC50
Sequence of Ba/F3-EGFR-VIII cells (P00533 with tags, fused parts or gaps DELINS30-297G): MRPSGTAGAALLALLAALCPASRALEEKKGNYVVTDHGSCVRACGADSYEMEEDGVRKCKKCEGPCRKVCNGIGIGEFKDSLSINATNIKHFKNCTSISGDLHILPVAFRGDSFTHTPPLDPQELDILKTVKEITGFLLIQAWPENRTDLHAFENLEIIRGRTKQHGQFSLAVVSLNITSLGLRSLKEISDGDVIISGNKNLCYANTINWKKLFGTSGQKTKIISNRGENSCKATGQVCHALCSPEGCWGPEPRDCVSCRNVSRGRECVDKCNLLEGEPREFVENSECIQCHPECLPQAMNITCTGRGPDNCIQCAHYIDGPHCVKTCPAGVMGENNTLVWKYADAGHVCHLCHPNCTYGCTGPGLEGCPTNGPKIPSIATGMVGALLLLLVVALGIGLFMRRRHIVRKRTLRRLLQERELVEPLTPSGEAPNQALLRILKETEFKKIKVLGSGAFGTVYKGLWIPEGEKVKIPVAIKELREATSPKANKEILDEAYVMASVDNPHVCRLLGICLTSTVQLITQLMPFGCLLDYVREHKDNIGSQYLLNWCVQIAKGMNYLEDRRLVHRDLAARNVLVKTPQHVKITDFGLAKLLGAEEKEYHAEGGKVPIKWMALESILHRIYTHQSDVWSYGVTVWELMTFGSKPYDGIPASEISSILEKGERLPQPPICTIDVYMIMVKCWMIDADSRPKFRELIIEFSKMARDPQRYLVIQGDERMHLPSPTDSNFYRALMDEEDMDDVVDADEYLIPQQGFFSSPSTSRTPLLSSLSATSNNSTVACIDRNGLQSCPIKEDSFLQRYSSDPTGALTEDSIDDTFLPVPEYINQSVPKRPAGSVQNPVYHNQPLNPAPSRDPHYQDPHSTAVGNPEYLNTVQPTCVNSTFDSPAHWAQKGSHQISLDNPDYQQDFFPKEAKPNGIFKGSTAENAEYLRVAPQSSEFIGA
Text: as §5, §6, §7, §8

T1 sequence (P00533 25-1210): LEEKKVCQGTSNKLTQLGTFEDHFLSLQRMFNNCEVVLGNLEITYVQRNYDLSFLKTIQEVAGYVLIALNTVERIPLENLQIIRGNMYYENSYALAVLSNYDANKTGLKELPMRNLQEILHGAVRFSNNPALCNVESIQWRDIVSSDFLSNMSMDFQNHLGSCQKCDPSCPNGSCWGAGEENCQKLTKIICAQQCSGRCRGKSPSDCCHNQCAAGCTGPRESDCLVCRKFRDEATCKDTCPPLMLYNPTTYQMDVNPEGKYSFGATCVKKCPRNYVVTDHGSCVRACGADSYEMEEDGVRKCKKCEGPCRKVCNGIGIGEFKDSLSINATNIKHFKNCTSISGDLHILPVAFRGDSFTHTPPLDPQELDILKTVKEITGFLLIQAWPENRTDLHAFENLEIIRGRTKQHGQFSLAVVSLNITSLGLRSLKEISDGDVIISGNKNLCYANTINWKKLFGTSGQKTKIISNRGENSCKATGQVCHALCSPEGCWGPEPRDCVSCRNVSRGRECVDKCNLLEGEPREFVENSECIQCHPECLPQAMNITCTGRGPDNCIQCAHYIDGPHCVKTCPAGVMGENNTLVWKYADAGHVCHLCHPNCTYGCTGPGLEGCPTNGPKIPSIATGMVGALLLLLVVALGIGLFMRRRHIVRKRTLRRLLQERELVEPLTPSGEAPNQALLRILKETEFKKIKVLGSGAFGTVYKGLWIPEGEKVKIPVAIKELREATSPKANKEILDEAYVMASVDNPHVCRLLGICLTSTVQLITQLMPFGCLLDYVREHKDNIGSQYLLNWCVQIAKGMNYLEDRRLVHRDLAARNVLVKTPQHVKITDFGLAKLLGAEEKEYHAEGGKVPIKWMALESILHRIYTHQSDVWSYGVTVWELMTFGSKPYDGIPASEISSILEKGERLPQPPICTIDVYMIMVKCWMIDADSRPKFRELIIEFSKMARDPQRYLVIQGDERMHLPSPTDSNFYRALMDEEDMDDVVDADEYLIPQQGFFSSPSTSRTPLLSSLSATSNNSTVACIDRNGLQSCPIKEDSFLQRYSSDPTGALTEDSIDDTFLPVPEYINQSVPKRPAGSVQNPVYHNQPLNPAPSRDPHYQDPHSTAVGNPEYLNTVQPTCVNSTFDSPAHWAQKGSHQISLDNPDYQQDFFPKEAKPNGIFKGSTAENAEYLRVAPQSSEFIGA

IC50 (EGFR^WT kinase) | IC50 (HER2 kinase) | IC50 (HCC-827 cells) | GI50 [1] | GI50 (Ba/F3-EGFR-VIII cells) | SMILES
1 to 10 nM | 100 to 1000 nM | ≤ 5 nM | 50 to 500 nM | 5 to 50 nM | COc1c(NC(=O)/C=C/CN(C)C2CC2)ccc2ncnc(Nc3cccc(Cl)c3F)c12 [Example 2, (E)-N-(4-((3-chloro-2-fluorophenyl)amino)-5-methoxyquinazolin-6-yl)-4-(cyclopropyl(methyl)amino)but-2-enamide]
≤ 1 nM | 10 to 100 nM | ≤ 5 nM | 50 to 500 nM | ≤ 5 nM | COCCOc1c(NC(=O)/C=C/CN(C)C)ccc2ncnc(Nc3cccc(Cl)c3F)c12 [Example 3, (E)-N-(4-((3-chloro-2-fluorophenyl)amino)-5-(2-methoxyethoxy)quinazolin-6-yl)-4-(dimethylamino)but-2-enamide]
≤ 1 nM | 10 to 100 nM | ≤ 5 nM | 50 to 500 nM | 5 to 50 nM | CN(C)C/C=C/C(=O)Nc1ccc2ncnc(Nc3cccc(Cl)c3F)c2c1OCCF [Example 4, (E)-N-(4-((3-chloro-2-fluorophenyl)amino)-5-(2-fluoroethoxy)quinazolin-6-yl)-4-(dimethylamino)but-2-enamide]
≤ 1 nM | 10 to 100 nM | ≤ 5 nM | 5 to 50 nM | ≤ 5 nM | CN(C)C/C=C/C(=O)Nc1ccc2ncnc(Nc3cccc(Cl)c3F)c2c1OCCO [Example 5, (E)-N-(4-((3-chloro-2-fluorophenyl)amino)-5-(2-hydroxyethoxy)quinazolin-6-yl)-4-(dimethylamino)but-2-enamide]
≤ 1 nM | 100 to 1000 nM | ≤ 5 nM | 50 to 500 nM | 5 to 50 nM | COCCCOc1c(NC(=O)/C=C/CN(C)C)ccc2ncnc(Nc3cccc(Cl)c3F)c12 [Example 6, (E)-N-(4-((3-chloro-2-fluorophenyl)amino)-5-(3-methoxypropoxy)quinazolin-6-yl)-4-(dimethylamino)but-2-enamide]
≤ 1 nM | 100 to 1000 nM | ≤ 5 nM | – | 5 to 50 nM | CN(C)C/C=C/C(=O)Nc1ccc2ncnc(Nc3cccc(Cl)c3F)c2c1OCCCS(C)(=O)=O [Example 7, (E)-N-(4-((3-chloro-2-fluorophenyl)amino)-5-(3-(methylsulfonyl)propoxy)quinazolin-6-yl)-4-(dimethylamino)but-2-enamide]
≤ 1 nM | 10 to 100 nM | ≤ 5 nM | 50 to 500 nM | 5 to 50 nM | COc1c(NC(=O)/C=C/CN(C)C(C)C)ccc2ncnc(Nc3cccc(Cl)c3F)c12 [Example 8, (E)-N-(4-((3-chloro-2-fluorophenyl)amino)-5-methoxyquinazolin-6-yl)-4-(isopropyl(methyl)amino)but-2-enamide]
≤ 1 nM | 10 to 100 nM | ≤ 5 nM | 5 to 50 nM | ≤ 5 nM | COc1c(NC(=O)/C=C/CNC(C)C)ccc2ncnc(Nc3cccc(Cl)c3F)c12 [Example 9, (E)-N-(4-((3-chloro-2-fluorophenyl)amino)-5-methoxyquinazolin-6-yl)-4-(isopropylamino)but-2-enamide]
≤ 1 nM | 10 to 100 nM | 5 to 50 nM | – | 5 to 50 nM | CSCCOc1c(NC(=O)/C=C/CN(C)C)ccc2ncnc(Nc3cccc(Cl)c3F)c12 [Example 12, (E)-N-(4-((3-chloro-2-fluorophenyl)amino)-5-(2-(methylthio)ethoxy)quinazolin-6-yl)-4-(dimethylamino)but-2-enamide]
≤ 1 nM | 1 to 10 nM | ≤ 5 nM | 50 to 500 nM | – | COc1c(NC(=O)/C=C/[C@H]2CCCN2C)ccc2ncnc(Nc3ccc(Cl)c(Cl)c3F)c12 [Example 20, (R,E)-N-(4-((3,4-dichloro-2-fluorophenyl)amino)-5-methoxyquinazolin-6-yl)-3-(1-methylpyrrolidin-2-yl)acrylamide]
≤ 1 nM | 10 to 100 nM | ≤ 5 nM | 5 to 50 nM | – | CN(C)C/C=C/C(=O)Nc1ccc2ncnc(Nc3ccc(Cl)c(Cl)c3F)c2c1OCCO [Example 21, (E)-N-(4-((3,4-dichloro-2-fluorophenyl)amino)-5-(2-hydroxyethoxy)quinazolin-6-yl)-4-(dimethylamino)but-2-enamide]
≤ 1 nM | 1 to 10 nM | ≤ 5 nM | 5 to 50 nM | – | CN1CCC[C@@H]1/C=C/C(=O)Nc1ccc2ncnc(Nc3ccc(Cl)c(Cl)c3F)c2c1OCCO [Example 22, (R,E)-N-(4-((3,4-dichloro-2-fluorophenyl)amino)-5-(2-hydroxyethoxy)quinazolin-6-yl)-3-(1-methylpyrrolidin-2-yl)acrylamide]
≤ 1 nM | 10 to 100 nM | ≤ 5 nM | 50 to 500 nM | – | COCCOc1c(NC(=O)/C=C/CN(C)C)ccc2ncnc(Nc3ccc(Cl)c(Cl)c3F)c12 [Example 23, (E)-N-(4-((3,4-dichloro-2-fluorophenyl)amino)-5-(2-methoxyethoxy)quinazolin-6-yl)-4-(dimethylamino)but-2-enamide]
≤ 1 nM | 10 to 100 nM | ≤ 5 nM | 50 to 500 nM | – | COCCOc1c(NC(=O)/C=C/[C@H]2CCCN2C)ccc2ncnc(Nc3ccc(Cl)c(Cl)c3F)c12 [Example 24, (R,E)-N-(4-((3,4-dichloro-2-fluorophenyl)amino)-5-(2-methoxyethoxy)quinazolin-6-yl)-3-(1-methylpyrrolidin-2-yl)acrylamide]

From patent publication US20240400521A1, “QUINAZOLINE COMPOUND, COMPOSITION, AND APPLICATION THEREOF” (BEIJING SCITECH-MQ PHARMACEUTICALS LIMITED, priority 2021, published 2024)
